Experiments:
[1] = system: macrophage-lipid complex on the arterial endothelium; assay: Fatty streak analysis: macrophage-lipid complex on main artery of cholesterol-fed rabbits (Example 6); format: in vivo, New Zealand White rabbit; details: for inhibition of accumulation of macrophage-lipid complex on the arterial endothelium (conclusion): 0.1% in 1% cholesterol diet; for area of macrophage-lipid complex accumulated on the arterial endothelium, compared to control group / M-L (macrophage-lipid) complex area: 1% cholesterol diet, 6 weeks, 0.1% naringin or naringenin; for M-L (macrophage-lipid) complex area: proportion of total arterial area, control 35
Excerpt: RC4 diet comprises 7.6% moisture, 22.8% crude protein, 2.8% crude fat, 8.8% crude ash, 14.4% crude cellulose and 43.6% soluble nitrogen-free substances. The rabbits were bred for 6 weeks while being allowed free access to the diets and water. The rabbits bred in (Step 1) were sacrificed and their chest were incised. The main artery was cut out therefrom in a length of about 5 cm downward from the site 1 cm above the aortic valve and the fat surrounding the main artery was removed. The main artery was incised in the middle along the longitudinal axis and pinned to a dish. The moist artery was photographed and, then, staining of fatty streak was carried out in accordance with the method of […]., et al. (J. Lab. Clin. […] A part of the incised main artery was washed three times by 2 min. with anhydrous propylene glycol and stained for 30 min. with a saturated solution of Oil Red O (ORO, Sigma Co.) dissolved in propylene glycol. Thereafter, the artery was washed twice by 3 min. with 85% propylene glycol to remove remaining staining solution and, then washed with physical saline. The artery was photographed and the photograph was traced. The area of stained region (fatty streak region) was determined with an image analyzer (LEICA, Q-600, Germany) and its proportion (%) to the total arterial area was calculated. On the other hand, the other part of the main artery was stained in accordance with hematoxylin-eosin (H&E) and Masson's trichrome staining methods and observed under a microscope to confirm whether the macrophage-lipid complexes were accumulated in the intima, internus, elastic lamina and media.

[2] = Serum GOT, GPT and γGTP in a person (Example 7, Step 4); format: in vivo; details: human, oral, 10 mg/kg daily
Method: Naringin was orally administered to a person at a daily dose of 10 mg/kg for 68 days and serum GOT, GPT and γGTP levels were determined just before the administration (day 0), and 45 and 68 days after the administration (day 45 and day 68), respectively. Consequently, serum GOT levels at day 45 and day 68 decreased by 17%, respectively, in comparison to that of day 0. Serum GPT levels at day 45 and day 68 decreased by 15% and 19%, respectively, in comparison to that of day 0. Further, serum γGTP levels at day 45 and day 68 decreased by 25% and 51%, respectively, in comparison to that of day 0.

hepatic cells = details: rabbits, six weeks
Method: The same procedure as in (Step 1) was repeated except that 30 three-month old New Zealand White rabbits (Yeonam Horticulture and Animal Husbandry College, Korea) each weighing about 2.5 to 2.6 kg were used in place of the rats, and the rabbits were fed for six weeks with three different diets, i.e., RC4 diet containing 1% cholesterol (Control group); 1% cholesterol plus 1 mg/kg Lovastatin® (Comparative group); and 1% cholesterol plus 0.1% naringin, respectively.
Thereafter, the livers were separated from the rabbits and the histopathological observations were carried out as follows.
The rabbits were anesthetized with an intramuscular injection of ketamine (75 mg/kg) and subjected to an abdominal incision. […] The fixed liver was washed sufficiently with water, dehydrated stepwise with 70%, 80%, 90% and 100% ethanol and, then, embedded in paraffin. The embedded liver was sectioned in 4 μm thickness with a microtome and stained with hematoxylin and eosin. The stained liver specimen was made transparent with xylene, mounted with permount, and then observed under a microscope to confirm the presence of lesions.

[3] = Serum GOT and GPT levels in rats (Example 7); format: in vivo, Sprague-Dawley rat; details: 1% cholesterol diet plus 0.02% naringin, six weeks
Excerpt: 20 four-week-old Sprague-Dawley rats (Taihan laboratory animal center, Korea) each weighing about 90 to 110 g were evenly divided into two dietary groups by a randomized block design. The rats of the two groups were fed with two different high-cholesterol diets, i.e., AIN-76 laboratory animal diet (ICN Biochemicals, Cleveland, Ohio, U.S.A.) containing 1% cholesterol (Control group), and 1% cholesterol plus 0.02% naringin, respectively.
Blood samples were taken from the rats of the two dietary groups and serum GOT (glutamate-oxaloacetate transaminase) and GPT (glutamate-pyruvate transaminase) levels were determined in accordance with the method of Reitman and Frankel (Reitman, S. and J. S. Frankel, Am. J. Clin. Pathol., 28, 56(1956)). GOT and GPT are synthesized in the liver and heart, and released into blood stream upon the damage of these organs. Accordingly, GOT and GPT are representative markers of the liver-function and high serum GOT and GPT levels mean severe damage of the liver.

[4] = Serum γGTP in a habitual drinker (Example 7, Step 4); format: in vivo; details: human, oral, 6 mg/kg daily, 30 days; day 0: 129 IU/l
Method: On the other hand, naringin was orally administered to a person, who had drunk alcoholic beverages habitually in an amount of 100 cc per day, at a daily dose of 6 mg/kg for 30 days and serum γGTP level was determined just before the administration (day 0) and 30 days after the administration (day 30). Consequently, initial serum γGTP level at day 0 was 129 IU/l, while that of day 30 decreased to 69 IU/l which is within the normal range.

Structure (SMILES) | inhibition of accumulation of macrophage-lipid complex on the arterial endothelium (conclusion) [1] | area of macrophage-lipid complex accumulated on the arterial endothelium, compared to control group ([1]; 1 mg/kg Lovastatin) | M-L (macrophage-lipid) complex area ([1]; 1 mg/kg Lovastatin) | decrease of serum GOT level, day 45 vs day 0 ([2]; day 45) | decrease of serum GPT level, day 45 vs day 0 ([2]; day 45) | decrease of serum γGTP level, day 45 vs day 0 ([2]; day 45) | decrease of serum GOT level, day 68 vs day 0 ([2]; day 68) | decrease of serum GPT level, day 68 vs day 0 ([2]; day 68) | occurrence of fatty liver (hepatic cells; 1% cholesterol diet plus 0.1% naringin) | microscopic features of the liver (FIGS. 2A-2C) (hepatic cells; 1% cholesterol diet, 1 mg/kg Lovastatin, 0.1% naringin) | serum GOT level lower than control group [3] | serum GPT level lower than control group [3] | layer of macrophage-lipid complex on the arterial endothelium (FIGS. 1A-1C) ([1]; 1 mg/kg Lovastatin, 0.1% naringin, control: thick layer) | serum γGTP level at day 30 [4]
O=C1C[C@@H](c2ccc(O)cc2)Oc2cc(O)cc(O)c21 [naringenin] | strongly inhibit | decreased significantly | 13% | – | – | – | – | – | – | – | – | – | – | –
C[C@@H]1O[C@@H](O[C@H]2[C@H](Oc3cc(O)c4c(c3)O[C@H](c3ccc(O)cc3)CC4=O)O[C@H](CO)[C@@H](O)[C@@H]2O)[C@H](O)[C@H](O)[C@H]1O [naringin, Naringin] | strongly inhibit | decreased significantly | 12% | 17% | 15% | 25% | 17% | 19% | strongly inhibits the occurrence of fatty liver | normal and the deposition of fat is not observed | about 30% | ~10% | no or very thin layers of macrophage-lipid complex | 69 IU/l

From patent US6165984A, “Naringin and naringenin as inhibitors of acyl CoA-cholesterol-o-acyltransferase” (Korea Institute of Science & Technology, priority 1997, dated 2000)
